# Data published in ChEMBL document CHEMBL1145206, “Design, synthesis and structure-activity relationships of novel taxane-based multidrug resistance reversal agents” (2005).
# Experiments:
# MDA-MB-435 = assay: MDR-reversal activity evaluated against the resistant human breast tumor cell line MDA-435/LCC6-MDR; type: functional; parameters: concentration or dose not given beside the values
# MCF7R = assay: MDR-reversal activity evaluated against the resistant human breast tumor cell line MCF7-R; type: functional; parameters: concentration or dose not given beside the values
smiles,measurement,setting,value
CC(=O)O[C@H]1C(=O)[C@]2(C)[C@@H](OC(=O)/C=C/c3ccc(C(=O)c4ccccc4)cc3)C[C@H]3OC[C@@]3(OC(C)=O)[C@H]2[C@H](OC(=O)c2ccccc2)[C@]2(O)C[C@H](OC(C)=O)C(C)=C1C2(C)C,Reduction,MDA-MB-435,92%
same,Reduction,MCF7R,99.7%
